Source: PMC5820181 (Biochemistry, 2018)

Tests used:
[1] = molecular target: T1, LipDH-mCherry; yeast lipoamide dehydrogenase (Saccharomyces cerevisiae, UniProt P09624); assay: UV-Vis absorbance of purified protein; assay type: binding; settings: 50 mM phosphate pH 7.5, 1 mM EDTA; bound as purified
T1 sequence (P09624 22-499): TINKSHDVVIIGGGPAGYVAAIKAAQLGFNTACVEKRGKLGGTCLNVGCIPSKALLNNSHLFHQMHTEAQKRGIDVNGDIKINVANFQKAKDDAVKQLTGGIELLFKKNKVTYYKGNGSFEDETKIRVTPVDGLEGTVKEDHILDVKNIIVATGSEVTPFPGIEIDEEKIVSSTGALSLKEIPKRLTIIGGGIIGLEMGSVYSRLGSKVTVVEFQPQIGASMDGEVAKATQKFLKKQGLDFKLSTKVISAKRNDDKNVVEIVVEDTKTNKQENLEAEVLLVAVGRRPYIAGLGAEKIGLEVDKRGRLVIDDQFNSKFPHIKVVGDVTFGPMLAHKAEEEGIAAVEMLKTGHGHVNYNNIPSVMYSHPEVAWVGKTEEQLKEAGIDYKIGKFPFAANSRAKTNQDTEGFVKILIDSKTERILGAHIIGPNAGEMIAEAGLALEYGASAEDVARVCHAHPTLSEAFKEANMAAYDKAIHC

[2] = molecular target: EcTrxR-mCherry (TrxR-mCherry); E. coli thioredoxin reductase (Escherichia coli, UniProt P0A9P4); assay: UV-Vis absorbance of purified protein; assay type: binding; settings: 50 mM phosphate pH 7.5, 1 mM EDTA; bound as purified
Chain of EcTrxR-mCherry (TrxR-mCherry); E. coli thioredoxin reductase (P0A9P4 2-321): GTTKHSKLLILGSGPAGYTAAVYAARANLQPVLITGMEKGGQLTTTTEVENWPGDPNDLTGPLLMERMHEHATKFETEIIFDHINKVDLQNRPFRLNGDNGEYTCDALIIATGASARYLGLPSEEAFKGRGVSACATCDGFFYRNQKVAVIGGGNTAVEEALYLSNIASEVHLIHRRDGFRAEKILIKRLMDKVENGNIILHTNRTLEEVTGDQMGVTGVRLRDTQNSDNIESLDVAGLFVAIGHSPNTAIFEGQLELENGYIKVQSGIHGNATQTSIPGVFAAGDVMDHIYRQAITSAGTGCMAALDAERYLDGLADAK

[3] = molecular target: T1, LipDH-mCherry; yeast lipoamide dehydrogenase; assay: quenching of flavin fluorescence; assay type: biochemical; settings: 1 uM probe, 100 uM NADPH; poor substrate

`Cc1cc2nc3c(=O)[nH]c(=O)nc-3n(C[C@H](O)[C@H](O)[C@H](O)COP(=O)(O)OP(=O)(O)OC[C@H]3O[C@@H](n4cnc5c(N)ncnc54)[C@H](O)[C@@H]3O)c2cc1C` [FAD] was tested, and the “UV-Vis absorbance of purified protein” value [1] was “purified construct contained the expected complement of flavin and mCherry absorbance contributions” and the “UV-Vis absorbance of purified protein” value [2] was “found to contain the expected complement of flavin and mCherry”.
For `NC(=O)C1=CN([C@@H]2O[C@H](COP(=O)(O)OP(=O)(O)OC[C@H]3O[C@@H](n4cnc5c(N)ncnc54)[C@H](OP(=O)(O)O)[C@@H]3O)[C@@H](O)[C@H]2O)C=CC1` [NADPH], the “quenching of flavin fluorescence (456/520 nm) on reduction” value [3] was “the probe responds slowly to this pyridine nucleotide”.
